The subject of one series is HCoV-229E. Description: Cytopathic effect (CPE) reduction assay with HCoV-229E in HEL cells. The class given is cell-based, human coronavirus 229E. As to conditions: for EC50: Human coronavirus 229E, 120 h; for Selectivity Index MTS: ratio of CC50 to EC50-MTS; for Selectivity Index MTS / Selectivity Index Microscopy: only values of 10 or higher shown; for Selectivity Index Microscopy: ratio of MCC to EC50-microscopy.

In series [1] the target is SARS-CoV-2 nsp5 main protease (M^pro) (Severe acute respiratory syndrome coronavirus 2, UniProt P0DTD1). Description: FRET-based M^pro enzymatic assay. The class given is biochemical. Here is the method: Serial dilutions of the compounds were incubated with purified nsp5 protein in the presence of substrate (Dabcyl-KTSAVLQ↓SGFRKM-Edans-NH2), and peptide cleavage was followed by an increase in fluorescence. The compounds’ IC50 values were determined by Hill curve fitting. Values are the mean ± SEM (N = 3).
After transforming the pGEX-6P-1 plasmid in E. coli BL21 DE3 gold, nsp5 production was stimulated by overnight induction with 250 μM IPTG at a temperature of 17 °C. After centrifugation, the bacteria were resuspended in buffer consisting of: 50 mM Tris pH 8; 300 mM NaCl; 5 mM MgSO4; 1 mM PMSF; 10 μg/mL DNAse I; 0.25 mg/mL Lysozyme; 0.1%Triton X-100; and 10% glycerol. The cells were lysed by three cycles of sonication and centrifugation. The nsp5 protein was bound to Co-NTA agarose beads and eluted in lysis buffer containing 250 mM of imidazole. Next, the protein product was concentrated on a Vivaspin 20 centrifugal concentrator (10 kDa cut-off; GE Healthcare) and imidazole was removed by dialysis. Finally, the purified nsp5 was stored at −80 °C with 50% glycerol.
M^pro enzymatic assay. The fluorescence resonance energy transfer (FRET)-based protease assay was performed in black 384-well plates. Briefly, serial dilutions of the compounds were incubated with 80 nM nsp5 protein and 5 μM peptide substrate (Dabcyl-KTSAVLQ↓SGFRKM-Edans-NH2; Genscript) in buffer consisting of: 20 mM HEPES pH 6.5; 120 mM NaCl; 0.4 mM EDTA; 4 mM dithiothreitol; and 10% glycerol. The final DMSO content was 0.5%. Cleavage of the substrate was monitored for 40 min by measuring the increasing fluorescence in a Tecan Safire 2 plate reader (wavelength settings: excitation at 335 nm and emission at 493 nm). For each condition, enzyme activity was derived from the slope for the linear part of the curve and expressed relative to the activity in the condition receiving no compound. To determine the IC50 values, GraphPad Prism software was used to plot the % of enzyme activity against compound concentration and then fit the curves according to the equation Y = 100/(1 + (X/IC50)^HillSlope).

A short description of the next series: in vitro. As to conditions: human.
Series [2] relates to human embryonic lung (HEL) fibroblast cells. As to conditions: mock-infected HEL cells; microscopically visible alterations in cell morphology.
Where [3] appears, read: HCoV-229E-infected HEL cells, protection against virus-induced CPE by MTS cell viability assay, five days at 35 °C, read-out: Antiviral EC50 MTS.
Where [4] appears, read: HCoV-229E-infected HEL cells, protection against virus-induced CPE by microscopic scoring, five days at 35 °C, read-out: Antiviral EC50 Microscopy.

Read-outs that look alike come from different tables or passages of the source. Where only a bound is given, the exact number is not on record here.

In the case of `COC(=O)C[C@H](NC(=O)OC(C)(C)C)C(=O)N(Cc1ccccc1)C1(C(=O)NCc2ccccc2)CCN(Cc2ccccc2)CC1` [Compound 1], the “Antiviral EC50 MTS” value in the series with HCoV-229E (HCoV-229E-infected HEL cells, protection against virus-induced CPE by MTS cell viability assay, five days at 35 °C) was “no activity”. The EC50 with HCoV-229E (setting [3]) and in the series on HCoV-229E (setting [4]) was above 100 µM each time. This compound displayed an IC50 in series [1] of 161 ± 35 µM. In addition, the “IC50 on SARS-CoV-2 M^pro enzyme activity” value in series [1] (80 nM nsp5, 5 μM Dabcyl-KTSAVLQSGFRKM-Edans-NH2 substrate, mean ± SEM (N = 3)) is reported as “only marginal activity”. The CC50 in the series “in vitro” is above 100 µM. For the same compound, the “Cytotoxicity MCC (minimal cytotoxic concentration)” value (shortened to “Cytotoxicity MCC”) in series [2] is recorded as above 100 µM.

For the compound `CC(C)(C)OC(=O)N[C@@H](CC(=O)O)C(=O)N(Cc1ccccc1)C1(C(=O)NCc2ccccc2)CCN(Cc2ccccc2)CC1` [Compound 44], the 50% effective concentration (EC50) with HCoV-229E (setting [3]) and with HCoV-229E (setting [4]) was above 100 µM throughout. In “in vitro”, this compound yielded a CC50 above 100 µM. In addition, the “Cytotoxicity MCC” value in series [2] is listed as above 100 µM.

`CC(C)(C)OC(=O)N[C@@H](Cc1c[nH]c2ccccc12)C(=O)N(Cc1ccccc1)C1(C(=O)NCc2ccccc2)CCN(Cc2ccccc2)CC1` [Compound 47]: the figures for the EC50 with HCoV-229E (setting [3]) and in the series on HCoV-229E (setting [4]) were 49 ± 12 µM and 57 ± 17 µM, respectively. Besides, in “in vitro”, the CC50 was above 100 µM. Further, in series [2], the “Cytotoxicity MCC” value is given as above 100 µM.

Consider `CC(C)(C)OC(=O)N[C@@H](Cc1ccc(O)cc1)C(=O)N(Cc1ccccc1)C1(C(=O)NCc2ccccc2)CCN(Cc2ccccc2)CC1` [Compound 48], for which the EC50 in the series with HCoV-229E (setting [3]) was 9.3 µM; with HCoV-229E (setting [4]), 11 ± 1 µM. In addition, the “Selectivity Index MTS” value in the series on HCoV-229E is above 11. Moreover, the CC50 in the series “in vitro” is above 100 µM. Moreover, in series [2], the “Cytotoxicity MCC” value was above 100 µM.

In the case of `CC(C)(C)OC(=O)N[C@@H](Cc1ccc(F)cc1)C(=O)N(Cc1ccccc1)C1(C(=O)NCc2ccccc2)CCN(Cc2ccccc2)CC1` [Compound 49, Tert-butyl(S)-(1-(benzyl(1-benzyl-4-benzylcarbamoylpiperidin-4-yl)amino)-3-(4-fluorophenyl)-1-oxopropan-2-yl)carbamate], the EC50 was 8.4 µM with HCoV-229E (setting [3]) and 10 µM in the series on HCoV-229E (setting [4]). Further, the “Selectivity Index MTS” value in the series with HCoV-229E was above 12. In the series on HCoV-229E, the “Selectivity Index Microscopy” value is given as at least 10. In the series “in vitro”, this compound registered a CC50 above 100 µM. Besides, the “Cytotoxicity MCC” value in series [2] is given as at least 100 µM.

With `CC(C)(C)OC(=O)NC(Cc1ccc(Cl)cc1)C(=O)N(Cc1ccccc1)C1(C(=O)NCc2ccccc2)CCN(Cc2ccccc2)CC1` (centres unmarked) [Compound 50, Tert-butyl(1-(benzyl(1-benzyl-4-benzylcarbamoylpiperidin-4-yl)amino)-3-(4-chlorophenyl)-1-oxopropan-2-yl)carbamate], the EC50 in the series on HCoV-229E (setting [3]) came out at 9.7 ± 0.4 µM; in the series with HCoV-229E (setting [4]), 10 µM. In the series with HCoV-229E, the “Selectivity Index MTS” value is given as at least 10. For the same compound, the “Selectivity Index Microscopy” value in the series with HCoV-229E is at least 10. In the series “in vitro”, this compound showed a CC50 above 100 µM. In addition, the “Cytotoxicity MCC” value in series [2] is listed as at least 100 µM.

As to `COc1ccc(CC(NC(=O)OC(C)(C)C)C(=O)N(Cc2ccccc2)C2(C(=O)NCc3ccccc3)CCN(Cc3ccccc3)CC2)cc1` (centres unmarked) [Compound 51, Tert-butyl(1-(benzyl(1-benzyl-4-benzylcarbamoylpiperidin-4-yl)amino)-3-(4-methoxyphenyl)-1-oxopropan-2-yl)carbamate], the half-maximal effective concentration (EC50) in the series on HCoV-229E (setting [3]) was found to be 4.8 ± 0.4 µM; in the series on HCoV-229E (setting [4]), 8.2 ± 1.9 µM. In addition, in the series on HCoV-229E, the “Selectivity Index Microscopy” value was at least 12. Further, the CC50 in “in vitro” is above 100 µM. Also, the “Cytotoxicity MCC” value in series [2] was at least 100 µM.

On to `COC(=O)C[C@H](NC(=O)OCc1ccccc1)C(=O)N(Cc1ccccc1)C1(C(=O)NCc2ccccc2)CCN(CCc2ccccc2)CC1` [Compound 53, Methyl(S)-4-(benzyl(4-benzylcarbamoyl-1-phenethylpiperidin-4-yl)amino)-3-benzyloxycarbonylamino-4-oxobutanoate], for which the concentration giving a half-maximal response (EC50) was 5.8 ± 1.9 µM in the series with HCoV-229E (setting [3]) and 6.1 ± 2 µM with HCoV-229E (setting [4]). The same compound gave a CC50 in the series “in vitro” of 24 ± 2 µM. Moreover, the “Cytotoxicity MCC” value in series [2] stood at 40 µM.

As to `COC(=O)C[C@H](NC(=O)OCc1ccccc1)C(=O)N(Cc1ccccc1)C1(C(=O)NCc2ccccc2)CCN(CCc2ccc(C)cc2)CC1` [Compound 54, Methyl(S)-4-(benzyl(4-benzylcarbamoyl-1-(4-methylphenethyl)piperidin-4-yl)amino)-3-benzyloxycarbonylamino-4-oxobutanoate], the EC50 in the series with HCoV-229E (setting [3]) worked out at 8.4 ± 0.5 µM; in the series on HCoV-229E (setting [4]) it was 10 µM. In the series “in vitro”, the CC50 was found to be 24 ± 2 µM. Also, the “Cytotoxicity MCC” value in series [2] turned out to be 40 µM.

For `COC(=O)C[C@H](NC(=O)OCc1ccccc1)C(=O)N(Cc1ccccc1)C1(C(=O)NCc2ccccc2)CCN(CCc2ccc([N+](=O)[O-])cc2)CC1` [Compound 55, Methyl(S)-4-(benzyl(4-benzylcarbamoyl-1-(4-nitrophenethyl)piperidin-4-yl)amino)-3-benzyloxycarbonylamino-4-oxobutanoate], the results for the 50% effective concentration (EC50) with HCoV-229E (setting [3]) and in the series on HCoV-229E (setting [4]) were 7.7 ± 0.9 µM and 10 µM, respectively. In the series on HCoV-229E, the “Selectivity Index MTS” value is given as above 13. In addition, the CC50 in “in vitro” is above 100 µM. For the same compound, the “Cytotoxicity MCC” value in series [2] came to 60 µM.

On to `COC(=O)C[C@H](NC(=O)OCc1ccccc1)C(=O)N(Cc1ccccc1)C1(C(=O)NCc2ccccc2)CCN(CCc2ccc(F)cc2)CC1` [Compound 56, Methyl(S)-4-(benzyl(4-benzylcarbamoyl-1-(4-fluorophenethyl)piperidin-4-yl)amino)-3-benzyloxycarbonylamino-4-oxobutanoate], for which the EC50 is 6 ± 1.9 µM in the series with HCoV-229E (setting [3]) and 7.6 ± 1.8 µM with HCoV-229E (setting [4]). Also, the CC50 in the series “in vitro” was found to be 23 ± 3 µM. Also, the “Cytotoxicity MCC” value in series [2] is recorded as 32 µM.

As for `COC(=O)C[C@H](NC(=O)OCc1ccccc1)C(=O)N(CCNc1ccccc1)C1(C(=O)NCc2ccccc2)CCN(Cc2ccccc2)CC1` [Compound 57, Methyl(S)-4-((1-benzyl-4-benzylcarbamoylpiperidin-4-yl)(2-(phenylamino)ethyl)amino)-3-benzyloxycarbonylamino-4-oxobutanoate], the EC50 with HCoV-229E (setting [3]) is 7.1 ± 0.9 µM; in the series with HCoV-229E (setting [4]), 10 µM. The same compound yielded a CC50 in “in vitro” of 51 ± 9 µM. Besides, in series [2], the “Cytotoxicity MCC” value amounted to 40 µM.

As to `COC(=O)C[C@H](NC(=O)OCc1ccccc1)C(=O)N(CCNc1ccccc1)C1(C(=O)NCc2ccccc2)CCN(CCc2ccccc2)CC1` [Compound 58, Methyl(S)-4-((4-benzylcarbamoyl-1-phenethylpiperidin-4-yl)(2-(phenylamino)ethyl)amino)-3-benzyloxycarbonylamino-4-oxobutanoate], the EC50 with HCoV-229E (setting [3]) was 5.4 ± 1.4 µM; in the series on HCoV-229E (setting [4]) it was 7.9 ± 1.9 µM. In “in vitro”, this compound returned a CC50 of 20 ± 4 µM. The “Cytotoxicity MCC” value in series [2] is on record as 24 µM.

On to `COC(=O)C[C@H](NC(=O)OCc1ccccc1)C(=O)N(Cc1ccc(C)cc1)C1(C(=O)NCc2ccccc2)CCN(CCc2ccccc2)CC1` [Compound 59, Methyl(S)-4-((4-benzylcarbamoyl-1-phenethylpiperidin-4-yl)(4-methylbenzyl)amino)-3-benzyloxycarbonylamino-4-oxobutanoate], for which the EC50 in the series with HCoV-229E (setting [3]) was 5.1 ± 1 µM; in the series on HCoV-229E (setting [4]), 8.8 ± 0.7 µM. The CC50 in the series “in vitro” came to 15 ± 5 µM. Also, the “Cytotoxicity MCC” value in series [2] is 16 µM.

As to `CC(C)(C)OC(=O)NC(Cc1ccccc1)C(=O)N(Cc1ccccc1)C1(C(=O)NCc2ccccc2)CCN(Cc2ccc(Cl)cc2)CC1` (centres unmarked) [Compound 61, Tert-butyl(1-(benzyl(4-benzylcarbamoyl-1-(4-chlorobenzyl)piperidin-4-yl)amino)-1-oxo-3-phenylpropan-2-yl)carbamate], the 50% effective concentration (EC50) with HCoV-229E (setting [3]) turned out to be 30 ± 7 µM; with HCoV-229E (setting [4]), 36 ± 9 µM. The same compound displayed a CC50 in the series “in vitro” above 100 µM. Further, the “Cytotoxicity MCC” value in series [2] is listed as above 100 µM.

Consider `COc1ccc(CN2CCC(C(=O)NCc3ccccc3)(N(Cc3ccccc3)C(=O)C(Cc3ccccc3)NC(=O)OC(C)(C)C)CC2)cc1` (centres unmarked) [Compound 62, Tert-butyl(1-(benzyl(4-benzylcarbamoyl-1-(4-methoxybenzyl)piperidin-4-yl)amino)-1-oxo-3-phenylpropan-2-yl)carbamate], for which the half-maximal effective concentration (EC50) in the series on HCoV-229E (setting [3]) amounted to 4.3 ± 0.4 µM; in the series with HCoV-229E (setting [4]), 5.9 ± 1.8 µM. Also, the CC50 in the series “in vitro” stood at 28 µM. Besides, the “Cytotoxicity MCC” value in series [2] came to 40 µM.

As usually defined, the EC50 is the concentration giving half of the maximal effect. The IC50 is the midpoint of a concentration-inhibition curve. A higher IC50 goes with lower potency.
